Patent US10858335B2 (Rigel Pharmaceuticals, Inc., priority 2014, dated 2020)

test system: GDF8 signaling (p-SMAD-3 (Ser423/425)); test: AlphaScreen SureFire SMAD3 (p-Ser423/425) assay, GDF8-stimulated cells (GDF pSMAD); format: cell-based; settings: Mus musculus, MPC-11, GDF8-stimulated pSMAD3, MPC11; tested as the salt form given; read-out: GDF pSMAD (MPC11) (μM), inhibition of GDF8 signaling
Description: Biological Example 1: AlphaScreen® SureFire® SMAD3 (p-Ser423/425) Assay
The p-SMAD-3 (Ser423/425) SureFire® assay has been designed to measure the phosphorylation of endogenous cellular p-SMAD-3 (Ser423/425) in cell lysates and is a system for the screening of both modulators of receptor activation (e.g. agonists and antagonists) as well as agents acting intracellularly, such as small molecule inhibitors of upstream events. The assay will measure p-SMAD-3 (Ser423/425) activation by either cloned or endogenous receptors, and can be applied to primary cells.
P-SMAD-3 (Ser423/425) SureFire® Assay Protocols
Step A: Preparation of Buffers
1× Lysis buffer: 1 ml of 5× Lysis buffer was diluted with 4 ml of sterile water. After dilution, excess 1× Lysis buffer can be frozen and thawed up to 5 times without loss in activity.
Activation buffer: The buffer was warmed slowly to 37° C. and gently mixed to re-suspend. Activation buffer can be stored at room temperature with no loss in activity.
Reaction buffer: The buffer was kept at 4° C. while in use.
AlphaScreen® Protein A IgG Kit: The kit was stored at 4° C. in the dark.
Reaction buffer+Activation buffer+AlphaScreen® Acceptor beads: Reaction buffer (40 parts), Activation Buffer (10 parts) and Acceptor beads (1 part) were mixed and the mixture was stored at room temperature and used the same day. Mixture was added to 384-well plates; excess mixture was discarded.
Dilution buffer+AlphaScreen® Donor beads: Dilution buffer (20 parts) and Donor beads (1 part) were mixed and the mixture was stored at room temperature and used the same day. Excess mixture was discarded.
Assay control samples: After reconstitution in 250 μl of water, lysates were at −20° C. in single use aliquots.
Step B: Preparation of Samples and Cells
96-well Assay Protocol for 293FT and RMS13 adherent cells can be carried out manually or in high throughput with liquid handling robots.
The cells (80 μL of cells for 96 well plates) were plated in collagen coated tissue culture plates in RPMI or FreeStyle medium (Invitrogen) and incubated overnight. For manual analysis, 6 plates for GDF8, 6 plates for TGFβ, and optionally 6 plates for AlkSca(ALK5 constitutively active) were used.
The compound dilution plates were prepared as follows: 12 μL of DMSO was transferred into first column of 96-well plate, and 16 μL of DMSO was transferred into columns 2-12 of the 96-well plate. 12 μL of compound solution was transferred into first column of the DMSO-containing 96-well plate. Three-fold dilution was performed up to column 10 of the DMSO-containing 96-well plate.
Step C: Treatment and Analysis
The plate containing cells were treated with compounds for about 10 minutes, and then ligand was added. GDF8 or TGFb was added to plates to stimulate. 293FL cells were stimulated for 90 minutes at 37° C.; and RMS13 cells were stimulated for 60 minutes at 37° C. The medium was then removed from the cells, and 1× Lysis Buffer (about 25 μL) was added and the plate was gently agitated on plate shaker for 5-10 minutes.
The lysate (5 μL) was then placed into 384-well shallow plates avoiding the generation of bubbles. To this, the Reaction Buffer+Activation Buffer+AlphaScreen® Acceptor beads mixture (5 μL) was added. The plate was sealed with adhesive cover and shielded from light (e.g., with metal foil), and agitated gently on plate shaker for 2 hours at room temperature.
Dilution buffer+AlphaScreen® Donor beads (2 μL) was then added, and the plate was intubated on the plate shaker for an additional 1½ hours. After completion, the plate was read on Synergy-4 or Enspire plate reader, using AlphaScreen® pSMAD3® settings.
Representative results for inhibition of GDF8 signaling are shown in Table 2(data=GDF pSMAD (MPC11) (μM)): […]

IC50	Structure (SMILES)
1.86 µM	COc1cnc(-c2ccc(F)c(Cl)c2)c(-c2ccc3ncnc(N)c3c2)c1 [compound 992, 6-(2-(3-chloro-4-fluorophenyl)-5-methoxypyridin-3-yl)quinazolin-4-amine]
0.285 µM	Cc1cnc(-c2ccc(F)c(Cl)c2)c(-c2ccc3ncnc(N)c3c2)c1 [compound 990, 6-(2-(3-chloro-4-fluorophenyl)-5-methylpyridin-3-yl)quinazolin-4-amine]
2.61 µM	Cc1cc(-c2ncccc2-c2ccc3ncnc(NCCC(N)=O)c3c2)ccc1F [compound 1029, 3-((6-(2-(4-fluoro-3-methylphenyl)pyridin-3-yl)quinazolin-4-yl)amino)propanamide]
1.05 µM	Nc1ncnc2ccc(-c3cccnc3-c3cc(O)c(F)cc3F)cc12 [compound 1013, 5-(3-(4-aminoquinazolin-6-yl)pyridin-2-yl)-2,4-difluorophenol]

same assay, conditions: Mus musculus, MPC-11, MPC11; GDF8-stimulated; p-SMAD3 AlphaScreen; read-out: GDF pSMAD (MPC11) (inhibition of GDF8 signaling)

IC50	Structure (SMILES)
0.565 µM	O=C(NCCCN1CCCC1=O)c1cnc2ccc(-c3cccnc3-c3cccc(Cl)c3)cn12 [compound 726, 6-(2-(3-Chlorophenyl)pyridin-3-yl)-N-(3-(2-oxopyrrolidin-1-yl)propyl)imidazo[1,2-a]pyridine-3-carboxamide]
0.415 µM	N#Cc1cnc2ccc(-c3cccnc3-c3cccc(Cl)c3)cn12 [compound 697, 6-(2-(3-Chlorophenyl)pyridin-3-yl)imidazo[1,2-a]pyridine-3-carbonitrile]
0.252 µM	CN1CCC(NC(=O)c2cnc3ccc(-c4cccnc4-c4ccc(F)c(Cl)c4)cn23)CC1 [compound 709, 6-(2-(3-Chloro-4-fluorophenyl)pyridin-3-yl)-N-(1-methylpiperidin-4-yl)imidazo[1,2-a]pyridine-3-carboxamide]
0.164 µM	Cc1cc(-c2ncccc2-c2ccnc(Nc3cccc(S(N)(=O)=O)c3)n2)ccc1F [compound 907, 3-((4-(2-(4-Fluoro-3-methylphenyl)pyridin-3-yl)pyrimidin-2-yl)amino)benzenesulfonamide]
0.384 µM	Cc1cc(-c2ncccc2-c2ccc3ncnc(OCCCN(C)C)c3c2)ccc1F [compound 429, 3-((6-(2-(4-Fluoro-3-methylphenyl)pyridin-3-yl)quinazolin-4-yl)oxy)-N,N-dimethylpropan-1-amine]
0.193 µM	Cc1cc(-c2ncccc2-c2ccc3[nH]cnc(=O)c3c2)ccc1F [compound 346, 6-(2-(4-Fluoro-3-methylphenyl)pyridin-3-yl)quinazolin-4(1H)-one]
0.345 µM	Nc1nc2ccc(-c3cccnc3-c3cccc(Cl)c3)nc2s1 [compound 301, 5-(2-(3-Chlorophenyl)pyridin-3-yl)thiazolo[5,4-b]pyridin-2-amine]
1.23 µM	Nc1nc2ccc(-c3cccnc3-c3ccc(F)c(Cl)c3)cn2n1 [compound 291, 6-(2-(3-Chloro-4-fluorophenyl)pyridin-3-yl)-[1,2,4]triazolo[1,5-a]pyridin-2-amine]
0.661 µM	Fc1ccc(-c2ncccc2-c2ccc3ncnn3n2)cc1Cl [compound 953, 6-(2-(3-Chloro-4-fluorophenyl)pyridin-3-yl)-[1,2,4]triazolo[1,5-b]pyridazine]
0.965 µM	COc1cc(CNc2cnc(-c3ccc(F)c(C)c3)c(-c3ccc4ncsc4c3)c2)ccc1OCCO [compound 356, 2-(4-(((5-(Benzo[d]thiazol-6-yl)-6-(4-fluoro-3-methylphenyl)pyridin-3-yl)amino)methyl)-2-methoxyphenoxy)ethan-1-ol]
0.404 µM	Cc1cnc(-c2cccc(Cl)c2)c(-c2ccn3ncnc3c2)c1 [compound 868, 7-(2-(3-Chlorophenyl)-5-methylpyridin-3-yl)-[1,2,4]triazolo[1,5-a]pyridine]
0.288 µM	Cc1cc(-c2ncccc2-c2ccc3ncc(C(=O)NCCN)n3c2)ccc1F [compound 681, N-(2-Aminoethyl)-6-(2-(4-fluoro-3-methylphenyl)pyridin-3-yl)imidazo[1,2-a]pyridine-3-carboxamide]
6.6 µM	CC(C)c1cccc(-c2ncccc2-c2ccc3ncnc(N)c3c2)c1 [compound 478, 6-(2-(3-Isopropylphenyl)pyridin-3-yl)quinazolin-4-amine]
1.52 µM	Cn1c(=O)cnc2ccc(-c3cccnc3-c3cc(Cl)ccc3F)cc21 [compound 889, 7-(2-(5-Chloro-2-fluorophenyl)pyridin-3-yl)-1-methylquinoxalin-2(1H)-one]
1.38 µM	Cc1cc(-c2ncccc2-c2ccn3ncc(C(=O)N[C@H]4CCCC[C@@H]4N)c3c2)ccc1F [compound 664, N-((1S,2S)-2-Aminocyclohexyl)-5-(2-(4-fluoro-3-methylphenyl)pyridin-3-yl)pyrazolo[1,5-a]pyridine-3-carboxamide]
0.225 µM	OCc1cnc2ccc(-c3cccnc3-c3cccc(C4CC4)c3)cn12 [compound 567, (6-(2-(3-Cyclopropylphenyl)pyridin-3-yl)imidazo[1,2-a]pyridin-3-yl)methanol]
1.18 µM	Cc1cccc(-c2ncccc2-c2cc3cn[nH]c3cc2C)c1 [Compound 174, 6-Methyl-5-(2-m-tolylpyridin-3-yl)-1H-indazole]
4.44 µM	Cc1cc(-c2ncccc2-c2ccc3cnc(C(=O)NCCN4CCOCC4)n3c2)ccc1F [compound 271, 6-(2-(4-Fluoro-3-methylphenyl)pyridin-3-yl)-N-(2-morpholinoethyl)imidazo[1,5-a]pyridine-3-carboxamide]
14 µM	Nc1noc2ccc(-c3cccnc3-c3ccc(F)c(Cl)c3)cc12 [compound 796, 5-(2-(3-Chloro-4-fluorophenyl)pyridin-3-yl)benzo[d]isoxazol-3-amine]
0.192 µM	Fc1ccc(-c2ncccc2-c2ccc3nccn3n2)cc1Cl [compound 935, 6-(2-(3-Chloro-4-fluorophenyl)pyridin-3-yl)imidazo[1,2-b]pyridazine]
0.243 µM	c1cc(-c2ncccc2-c2ccc3nccn3c2)cc(C2CC2)c1 [Compound 193, 6-(2-(3-Cyclopropylphenyl)pyridin-3-yl)H-imidazo[1,2-a]pyridine]
3.7 µM	COc1cnc(-c2cccc(C(F)(F)F)c2)c(-c2ccn3ncnc3c2)c1 [compound 859]
9.79 µM	Cc1cc(-c2ncccc2-c2ccc3cnc(C(=O)NCCCN4CCCC4)n3c2)ccc1F [compound 273, 6-(2-(4-Fluoro-3-methylphenyl)pyridin-3-yl)-N-(3-(pyrrolidin-1-yl)propyl)imidazo[1,5-a]pyridine-3-carboxamide]
0.625 µM	Cc1cnc2ccc(-c3cccnc3-c3cccc(C(F)(F)F)c3)cn12 [compound 530, 3-Methyl-6-(2-(3-(trifluoromethyl)phenyl)pyridin-3-yl)imidazo[1,2-a]pyridine]
0.242 µM	Fc1cc(F)c(-c2ncccc2-c2ccc3nccn3n2)cc1Cl [compound 938, 6-(2-(5-Chloro-2,4-difluorophenyl)pyridin-3-yl)imidazo[1,2-b]pyridazine]
0.18 µM	Fc1ccc(Cl)cc1-c1ncccc1-c1ccn2nccc2n1 [compound 917, 5-(2-(5-Chloro-2-fluorophenyl)pyridin-3-yl)pyrazolo[1,5-a]pyrimidine]
0.172 µM	Fc1ccc(-c2ncccc2-c2ccc3nccn3c2)cc1Cl [compound 687, 6-(2-(3-Chloro-4-fluorophenyl)pyridin-3-yl)imidazo[1,2-a]pyridine]
14.8 µM	Cn1cnc2ccc(-c3cccnc3-c3cccc4cccnc34)cc2c1=O [compound 382, 3-Methyl-6-(2-(quinolin-8-yl)pyridin-3-yl)quinazolin-4(3H)-one]
